A word on the CC50: it is the concentration giving 50% cytotoxicity.

The text below walks through data of ChEMBL document CHEMBL4680171, “Oxadiazolylthiazoles as novel and selective antifungal agents” (Eur J Med Chem, 2020).

In brackets after ≈: the same amount, converted by molar mass.

Data set [1] relates to [Candida] auris. Briefly: Antifungal activity against fluconazole-resistant Candida auris 381 assessed as reduction in fungal growth incubated for 24 hrs by CLSI based broth microdilution method. Format: functional. Conditions: Candidozyma auris. (In general: Broth dilution looks for growth in wells or tubes with falling amounts of substance.)
For a further data set, the system named is Lacticaseibacillus casei. As to the kind of experiment: Antibacterial activity against Lactobacillus casei HM-334 assessed as reduction in bacterial growth by CLSI based assay. Format: organism-based.
A short description of data set [2]: Selectivity index, ratio of CC50 for African green monkey Vero cells to MIC for antifungal activity against Cryptococcus neoformans NR41298. Format: toxicity. Conditions: read-out: Selectivity Index.
Data set [3] is described as follows: Selectivity index, ratio of maximum non-toxic concentration for human Caco-2 cells to MIC for antifungal activity against Cryptococcus neoformans NR48770. Conditions: read-out: Selectivity Index. Format: toxicity.
A further data set concerns Pichia kudriavzevii. Briefly: Antifungal activity against Candida krusei ATCC 34135 assessed as reduction in fungal growth incubated for 24 hrs by CLSI based broth microdilution method. Format: functional.
The nature of data set [4]: Cytotoxicity against African green monkey Vero cells assessed as reduction in cell viability incubated for 2 hrs by MTS assay. Format: cell-based. Conditions: chlorocebus sabaeus. On the technique in general: Tetrazolium dyes change colour on reduction, which living cells bring about.
Data set [5] is described as follows: Selectivity index, ratio of CC50 for African green monkey Vero cells to MIC for antifungal activity against fluconazole-resistant Candida auris 383. Format: toxicity. The note with it: read-out: Selectivity Index.
A short description of data set [6]: Selectivity index, ratio of maximum non-toxic concentration for human Caco-2 cells to MIC for antifungal activity against fluconazole-resistant Candida auris 384. Format: toxicity. Conditions: read-out: Selectivity Index.
Data set [7] is described as follows: Selectivity index, ratio of maximum non-toxic concentration for human Caco-2 cells to MIC for antifungal activity against Cryptococcus gattii NR43209. Conditions: read-out: Selectivity Index. Format: toxicity.
Data set [8] has as its system Candida albicans. As to the kind of experiment: Antifungal activity against Candida albicans SS5314 assessed as reduction in fungal growth by CLSI based broth microdilution method. Format: functional.
Another data set relates to Aspergillus fumigatus. As to the kind of experiment: Antifungal activity against Aspergillus fumigatus NR 35303 assessed as reduction in fungal growth incubated for 24 hrs by CLSI based broth microdilution method. Format: functional.
The subject of a further data set is Escherichia coli. As to the kind of experiment: Antibacterial activity against Escherichia coli JW55031 harboring tolC mutation assessed as reduction in bacterial growth by CLSI based broth microdilution method. Format: functional.
The nature of data set [9]: Selectivity index, ratio of CC50 for African green monkey Vero cells to MIC for antifungal activity against Candida parapsilosis CAB 502638. Format: toxicity. The note with it: read-out: Selectivity Index.
Data set [10] has as its system Candida albicans. As to the kind of experiment: Antibiofilm activity against Candida albicans NR29448 assessed as reduction in biofilm formation at 0.5XMIC incubated for 24 hrs by crystal violet staining based assay relative to control. Format: functional.
Data set [11] deals with [Candida] auris. As to the kind of experiment: Antifungal activity against fluconazole-resistant Candida auris 384 assessed as reduction in fungal growth incubated for 24 hrs by CLSI based broth microdilution method. Format: functional. The note with it: Candidozyma auris.
The test system of data set [12] is Candida albicans. As to the kind of experiment: Antifungal activity against fluconazole-resistant Candida albicans NR29448 assessed as reduction in fungal growth incubated for 24 hrs by CLSI based broth microdilution method. Format: functional.
For a further data set, the system named is Lactobacillus gasseri. Briefly: Antibacterial activity against Lactobacillus gasseri HM-400 assessed as reduction in bacterial growth by CLSI based assay.

With `Cc1nc(-c2ccc(C(C)(C)C)cc2)sc1-c1nnc(N[C@@H]2CCCC[C@@H]2N)o1` (relative stereo), the MIC is 4 µg/mL (≈ 9.72 µM) in [Candida] auris [1]; above 128 µg/mL with Lacticaseibacillus casei; 2 µg/mL (≈ 4.86 µM) with Pichia kudriavzevii; 1 µg/mL (≈ 2.43 µM) with Candida albicans [8]; 8 µg/mL (≈ 19.4 µM) in the data set on Aspergillus fumigatus; above 64 µg/mL with Escherichia coli. For the same compound, the MIC amounted to 4 µg/mL (≈ 9.72 µM) in data set [Candida] auris [11], 8 µg/mL (≈ 19.4 µM) with Candida albicans [12] and 128 µg/mL (≈ 311 µM) in the data set on Lactobacillus gasseri. For the same compound, the selectivity ratio in data set [2], in [3], in [5], in [6], in data set [7] and in [9] was at most 64 throughout. The CC50 at 2 h in [4] was above 64 µg/mL. Also, the “inhibition (INH)” value in the data set on Candida albicans [10] came out at 40%.
